Laboratory results: patent US8716279B2, “Pharmaceutical compositions of clonazepam and method of use thereof” (Jazz Pharmaceuticals, Inc., priority 2006, dated 2014)

Experiment: Solubility of clonazepam in binary mixtures of matrices
Conditions: binary mixture with glycofurol, inferred from FIG. 2
Experimental: Further, the solubility of clonazepam in binary mixtures of Transcutol® (TC), triacetin (TA), glycofurol (GF) and propylene glycol (PG) was evaluated. Solubility limits of clonazepam were determined for the following formulations:
Excess drug (50 mg) was capped with about 500 μL of the solvent matrix in a 1.5 mL microfuge tube and the solution was mixed on a vortex shaker for several minutes. Thereafter, the solution was placed in an ultrasonic bath at 25° C. for 45 minutes. The temperature was regulated with a thermometer and controlled by adding ice into the bath. After 15 minutes of standing, the solutions were centrifuged at 3,000×g for 30 minutes. Solutions were then stored for 16 hours at 25° C. in an ICH cabinet and protected from light.

O=C1CN=C(c2ccccc2Cl)c2cc([N+](=O)[O-])ccc2N1 [Clonazepam, 5-(2-chlorophenyl)-1,3-dihydro-7-nitro-2H-1,4-benzodiazepin-2-one]
solubility in the 50:50 mixture: about 36.4 mg/mL
